Target: T1, Androgen receptor (Homo sapiens, UniProt P10275)
T1 sequence (P10275 whole entry): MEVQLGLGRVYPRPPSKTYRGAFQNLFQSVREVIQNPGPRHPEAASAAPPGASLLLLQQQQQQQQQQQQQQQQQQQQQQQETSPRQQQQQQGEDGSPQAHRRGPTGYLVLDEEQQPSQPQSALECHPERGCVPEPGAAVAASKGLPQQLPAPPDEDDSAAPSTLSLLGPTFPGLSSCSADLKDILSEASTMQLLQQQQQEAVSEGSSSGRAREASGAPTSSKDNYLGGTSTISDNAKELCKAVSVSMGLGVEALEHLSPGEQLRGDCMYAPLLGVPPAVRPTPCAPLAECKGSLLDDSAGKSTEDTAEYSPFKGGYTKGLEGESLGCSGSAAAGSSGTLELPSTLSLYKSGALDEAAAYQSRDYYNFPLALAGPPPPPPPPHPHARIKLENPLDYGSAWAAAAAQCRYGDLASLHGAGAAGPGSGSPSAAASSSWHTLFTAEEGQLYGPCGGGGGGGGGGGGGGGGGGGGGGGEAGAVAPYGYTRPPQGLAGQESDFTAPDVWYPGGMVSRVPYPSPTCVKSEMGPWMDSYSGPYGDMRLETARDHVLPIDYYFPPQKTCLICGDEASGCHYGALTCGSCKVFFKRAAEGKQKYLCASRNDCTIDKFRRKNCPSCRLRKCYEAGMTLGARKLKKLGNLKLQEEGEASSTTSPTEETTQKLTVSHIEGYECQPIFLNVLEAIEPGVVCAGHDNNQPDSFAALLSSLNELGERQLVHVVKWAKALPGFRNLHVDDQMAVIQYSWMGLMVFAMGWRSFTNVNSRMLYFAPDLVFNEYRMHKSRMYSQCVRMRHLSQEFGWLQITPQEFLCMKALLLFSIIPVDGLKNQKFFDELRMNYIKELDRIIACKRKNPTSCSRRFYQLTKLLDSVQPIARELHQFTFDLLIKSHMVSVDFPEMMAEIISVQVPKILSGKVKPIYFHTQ
Test: Antagonist activity at human androgen receptor LBD expressed in human MDA-kb2 cells by luciferase reporter gene assay

Structure (SMILES)	IC50 [nM]
CN(C)c1ccc(-c2cc(O)c3c(=O)cccc-3o2)cc1	851
O=c1cccc2oc(-c3ccc(O)cc3)cc(O)c1-2 [5-hydroxy-2-(4-hydroxyphenyl)-4H-chromen-4-one]	851

— BindingDB's records for doi:10.1016/j.bmc.2013.03.060 (Meijo University, 2013)
